Measurements published in PubChem BioAssay AID330 (DTP/NCI, 2004).
Values joined by “and” are separate entries in the source; they are usually repeats but may differ in a detail not shown here. Equal values may be shown once. Toxic doses and inconclusive results are not listed.

Tested on: P388 leukemia ip, CD2F1 mice, survival T/C
Experiment: NCI In Vivo Anticancer Drug Screen. Data for tumor model P388 Leukemia (intraperitoneal) in CD2F1 (CDF1) mice
Conditions: endpoint: median survival time, higher = longer survival
Procedure, shortened: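 Mice carrying the transplanted tumor received test compound or vehicle. Survival was recorded in each group, and the value is the treated-group measurement divided by that of the vehicle-treated control group.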

[1] = dose: 12.5 mg/kg/injection, schedule: Q01DX009 (ip), vehicle: saline with Tween-80
[2] = dose: 25.0 mg/kg/injection, schedule: Q01DX009 (ip), vehicle: saline with Tween-80
[3] = dose: 50.0 mg/kg/injection, schedule: Q01DX009 (ip), vehicle: saline with Tween-80

**Q.** Which T/C (dose: 12.5 mg/kg/injection, schedule: Q01DX009 (ip), vehicle: other) does the source give for CC(=O)OC12CCCCC1C1(CCCCC1)N=[N+]2[O-] (stereo not given) here?
**A.** Its T/C is 105 % of control.

**Q.** And the T/C (dose: 25.0 mg/kg/injection, schedule: Q01DX009 (ip), vehicle: other)?
**A.** Its T/C is 115 % of control.

**Q.** And the T/C (dose: 50.0 mg/kg/injection, schedule: Q01DX009 (ip), vehicle: other)?
**A.** Its T/C is 100 % of control.

**Q.** What about the T/C (dose: 100.0 mg/kg/injection, schedule: Q01DX009 (ip), vehicle: other) of the same compound?
**A.** Its T/C is 99 % of control.

**Q.** What about the T/C (dose: 200.0 mg/kg/injection, schedule: Q01DX009 (ip), vehicle: other) of the same compound?
**A.** The T/C was 112 % of control.

**Q.** What does the source list for O=C1NCCN=C1Cc1ccccc1?
**A.** T/C (dose: 100.0 mg/kg/injection, schedule: Q04DX002 (ip), vehicle: saline with Tween-80): 93 % of control; T/C (dose: 200.0 mg/kg/injection, schedule: Q04DX002 (ip), vehicle: saline with Tween-80): 100 % of control; T/C (dose: 400.0 mg/kg/injection, schedule: Q04DX002 (ip), vehicle: saline with Tween-80): 95 % of control

**Q.** CCOCC(COCC)(COCC)COCC was tested. Which T/C [1] did it give?
**A.** The T/C was 110 % of control.

**Q.** And the T/C [2]?
**A.** Its T/C is 110 % of control.

**Q.** What about the T/C [3] of the same compound?
**A.** The T/C was 119 % of control.

**Q.** For CCCc1cccc2c3c([nH]c12)C(CC)(CC(=O)O)CCC3 (stereo not given), which T/C [1] is on record?
**A.** Its T/C is 97 % of control.

**Q.** What about the T/C [2] of the same compound?
**A.** The T/C was 106 % of control.

**Q.** And the T/C [3]?
**A.** The T/C was 98 % of control and 97 % of control.

**Q.** How did the T/C (dose: 15.0 mg/kg/injection, schedule: Q01DX005 (ip), vehicle: saline with Tween-80) turn out when Cc1nc(C(=O)N=C(N)N)c(N)nc1-c1ccccc1 was run?
**A.** Its T/C is 106 % of control.

**Q.** And the T/C (dose: 30.0 mg/kg/injection, schedule: Q01DX005 (ip), vehicle: saline with Tween-80)?
**A.** The T/C was 104 % of control.

**Q.** And the T/C (dose: 60.0 mg/kg/injection, schedule: Q01DX005 (ip), vehicle: saline with Tween-80)?
**A.** Its T/C is 100 % of control.

**Q.** Which T/C (dose: 50.0 mg/kg/injection, schedule: Q01DX005 (ip), vehicle: Klucel (hydroxypropylcellulose) (HPC)) does the source give for O=C(O)C(Cc1cn(Cc2ccccc2)cn1)NCc1ccccc1 (stereo not given) here?
**A.** The T/C was 92 % of control.

**Q.** What about the T/C (dose: 100.0 mg/kg/injection, schedule: Q01DX005 (ip), vehicle: Klucel (hydroxypropylcellulose) (HPC)) of the same compound?
**A.** The T/C was 104 % of control.

**Q.** And the T/C (dose: 200.0 mg/kg/injection, schedule: Q01DX005 (ip), vehicle: Klucel (hydroxypropylcellulose) (HPC))?
**A.** Its T/C is 95 % of control.

**Q.** What does the source list for O=C1C(Cl)=C(Sc2nc3ccccc3s2)C(=O)c2ccccc21?
**A.** T/C (dose: 12.5 mg/kg/injection, schedule: Q01DX005 (ip), vehicle: saline with Tween-80): 100 % of control; T/C (dose: 25.0 mg/kg/injection, schedule: Q01DX005 (ip), vehicle: saline with Tween-80): 100 % of control

**Q.** COc1cc2c(c(OC)c1OC)-c1ccc(OC)c(=O)cc1[C@@H](NC(=O)C(F)(F)F)CC2 was tested. Which T/C (dose: 0.09 mg/kg/injection, schedule: Q01DX009 (ip), vehicle: Klucel (hydroxypropylcellulose) (HPC)) did it give?
**A.** Its T/C is 121 % of control.

**Q.** What about the T/C (dose: 0.18 mg/kg/injection, schedule: Q01DX009 (ip), vehicle: Klucel (hydroxypropylcellulose) (HPC)) of the same compound?
**A.** Its T/C is 123 % of control.

**Q.** And the T/C (dose: 6.0 micrograms/kg/injection, schedule: Q01DX009 (ip), vehicle: Klucel (hydroxypropylcellulose) (HPC))?
**A.** Its T/C is 101 % of control.

**Q.** And the T/C (dose: 12.0 micrograms/kg/injection, schedule: Q01DX009 (ip), vehicle: Klucel (hydroxypropylcellulose) (HPC))?
**A.** The T/C was 111 % of control.

**Q.** What about the T/C (dose: 24.0 micrograms/kg/injection, schedule: Q01DX009 (ip), vehicle: Klucel (hydroxypropylcellulose) (HPC)) of the same compound?
**A.** Its T/C is 112 % of control.

**Q.** And the T/C (dose: 24.38 micrograms/kg/injection, schedule: Q01DX009 (ip), vehicle: Klucel (hydroxypropylcellulose) (HPC))?
**A.** The T/C was 120 % of control.

**Q.** What about the T/C (dose: 48.0 micrograms/kg/injection, schedule: Q01DX009 (ip), vehicle: Klucel (hydroxypropylcellulose) (HPC)) of the same compound?
**A.** The T/C was 121 % of control.

**Q.** And the T/C (dose: 48.75 micrograms/kg/injection, schedule: Q01DX009 (ip), vehicle: Klucel (hydroxypropylcellulose) (HPC))?
**A.** The T/C was 120 % of control.

**Q.** And the T/C (dose: 97.0 micrograms/kg/injection, schedule: Q01DX009 (ip), vehicle: Klucel (hydroxypropylcellulose) (HPC))?
**A.** The T/C was 119 % of control.

**Q.** What about the T/C (dose: 97.5 micrograms/kg/injection, schedule: Q01DX009 (ip), vehicle: Klucel (hydroxypropylcellulose) (HPC)) of the same compound?
**A.** Its T/C is 118 % of control.

**Q.** And the T/C (dose: 195.0 micrograms/kg/injection, schedule: Q01DX009 (ip), vehicle: Klucel (hydroxypropylcellulose) (HPC))?
**A.** Its T/C is 122 % of control.

**Q.** And the T/C (dose: 390.0 micrograms/kg/injection, schedule: Q01DX009 (ip), vehicle: Klucel (hydroxypropylcellulose) (HPC))?
**A.** The T/C was 155 % of control.

**Q.** CCOC(=O)CN1C(=S)N(c2ccc(C)cc2)C(=Nc2ccc(C)cc2)C1=Nc1ccc(C)cc1 was tested. Which T/C (dose: 50.0 mg/kg/injection, schedule: Q01DX005 (ip), vehicle: Klucel + Tween-80) did it give?
**A.** The T/C was 96 % of control.

**Q.** What about the T/C (dose: 100.0 mg/kg/injection, schedule: Q01DX005 (ip), vehicle: Klucel + Tween-80) of the same compound?
**A.** Its T/C is 91 % of control.

**Q.** What about the T/C (dose: 200.0 mg/kg/injection, schedule: Q01DX005 (ip), vehicle: Klucel + Tween-80) of the same compound?
**A.** The T/C was 90 % of control.

**Q.** With CC(C)(C)C1CCC(O)(Cc2ccccc2)CC1 (stereo not given) as the compound, how does the T/C (dose: 50.0 mg/kg/injection, schedule: Q01DX005 (ip), vehicle: saline with Tween-80) read?
**A.** Its T/C is 101 % of control.

**Q.** And the T/C (dose: 100.0 mg/kg/injection, schedule: Q01DX005 (ip), vehicle: saline with Tween-80)?
**A.** The T/C was 91 % of control.

**Q.** And the T/C (dose: 200.0 mg/kg/injection, schedule: Q01DX005 (ip), vehicle: saline with Tween-80)?
**A.** Its T/C is 99 % of control.
